From article PMC3604040 (Biochemical pharmacology, 2013)

Key:
[1] = molecular target: T1, UDP-glucuronosyltransferase (UGT 2B7) (Homo sapiens, UniProt P16662)
T1 sequence (P16662 24-529): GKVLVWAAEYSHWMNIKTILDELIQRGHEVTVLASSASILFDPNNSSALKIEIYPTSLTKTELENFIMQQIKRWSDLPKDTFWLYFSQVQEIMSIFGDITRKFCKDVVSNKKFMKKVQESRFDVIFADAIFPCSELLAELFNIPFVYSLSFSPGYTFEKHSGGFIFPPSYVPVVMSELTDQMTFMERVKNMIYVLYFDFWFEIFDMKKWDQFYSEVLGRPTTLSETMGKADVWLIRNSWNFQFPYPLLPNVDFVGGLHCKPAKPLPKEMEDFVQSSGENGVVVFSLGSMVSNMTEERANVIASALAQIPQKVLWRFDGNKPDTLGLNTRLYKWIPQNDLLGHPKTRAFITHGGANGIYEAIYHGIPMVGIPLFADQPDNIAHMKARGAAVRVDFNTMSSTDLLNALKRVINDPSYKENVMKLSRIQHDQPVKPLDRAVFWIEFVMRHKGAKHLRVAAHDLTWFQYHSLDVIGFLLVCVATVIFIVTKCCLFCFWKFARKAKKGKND

[2] = Metabolism and stability of PTI in human kidney microsomes; assay type: in vitro ADME; conditions: 0.25 mg/ml protein, 37°C
[3] = Metabolism and stability of PTI in human liver microsomes; assay type: in vitro ADME; conditions: for metabolite formation in PTI-treated HLMs in the absence of NADPH: 20 min after initiation of the reaction
[4] = UDP-glucuronic acid, in the presence of DFP, 2 h
[5] = PTI 10 mg/kg oral in corn oil, 3 h post-dosing
CYP3A4 = CYP3A4 (Homo sapiens, UniProt P08684); conditions: recombinant CYP3A4, DFP pre-treated, PTI 2 to 200 µM, 1 h
Chain of CYP3A4 (P08684 whole entry): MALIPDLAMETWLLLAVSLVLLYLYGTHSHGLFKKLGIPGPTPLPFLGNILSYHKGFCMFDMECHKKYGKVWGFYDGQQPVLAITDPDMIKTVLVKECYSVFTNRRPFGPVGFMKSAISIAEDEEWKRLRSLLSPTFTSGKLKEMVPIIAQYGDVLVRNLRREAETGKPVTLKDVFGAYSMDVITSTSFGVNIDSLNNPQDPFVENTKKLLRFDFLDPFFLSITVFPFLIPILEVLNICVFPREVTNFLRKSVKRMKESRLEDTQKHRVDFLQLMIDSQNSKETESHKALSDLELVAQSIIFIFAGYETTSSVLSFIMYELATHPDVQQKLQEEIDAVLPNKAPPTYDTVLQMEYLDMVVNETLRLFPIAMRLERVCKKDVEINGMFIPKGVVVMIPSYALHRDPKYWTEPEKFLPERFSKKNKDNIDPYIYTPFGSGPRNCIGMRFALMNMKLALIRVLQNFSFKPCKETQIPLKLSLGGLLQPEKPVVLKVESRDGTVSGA

CYP2D6 = CYP2D6 (Homo sapiens, UniProt P10635); conditions: recombinant CYP2D6, DFP pre-treated, PTI 2 to 200 µM, 1 h
Chain of CYP2D6 (P10635 whole entry): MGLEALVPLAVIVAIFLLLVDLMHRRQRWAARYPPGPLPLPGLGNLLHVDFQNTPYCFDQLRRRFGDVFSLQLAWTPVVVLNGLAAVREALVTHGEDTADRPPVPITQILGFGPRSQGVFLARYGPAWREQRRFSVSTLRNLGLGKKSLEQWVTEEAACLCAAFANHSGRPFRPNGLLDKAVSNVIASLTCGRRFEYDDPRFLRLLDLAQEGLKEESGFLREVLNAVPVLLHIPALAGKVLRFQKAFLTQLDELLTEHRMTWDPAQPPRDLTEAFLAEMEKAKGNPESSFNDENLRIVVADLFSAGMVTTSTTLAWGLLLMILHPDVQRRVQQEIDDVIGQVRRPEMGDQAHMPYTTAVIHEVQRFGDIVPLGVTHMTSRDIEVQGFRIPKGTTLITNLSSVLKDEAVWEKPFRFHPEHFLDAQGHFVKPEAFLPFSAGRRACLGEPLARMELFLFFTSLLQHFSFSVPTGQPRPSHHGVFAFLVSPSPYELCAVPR

[6] = Metabolism and stability of PTI in human lung microsomes; assay type: in vitro ADME; conditions: 0.25 mg/ml protein, 37°C
[7] = Metabolism and stability of PTI in human intestine microsomes; assay type: in vitro ADME; conditions: 0.25 mg/ml protein, 37°C
[8] = Metabolism and stability of PTI in rat liver microsomes; assay type: in vitro ADME; conditions: 0.5 mg/ml protein
[9] = Metabolism and stability of PTI in mouse liver microsomes; assay type: in vitro ADME; conditions: 0.5 mg/ml protein
[10] = 37°C, NADPH-regenerating solution
[11] = twenty minutes after initiation, PTI 75 µM

In the case of `COc1ccc2c(c1)c(CC(=O)O)c(C)n2C(=O)c1ccc(Cl)cc1` [IND, indomethacin, reference compound], the “glucuronidation by UGT 2B7” value [1] is reported as “capable of catalyzing the glucuronidation of IND”.

`CCOP(=O)(OCC)OCCc1ccc(OC(=O)Cc2c(C)n(C(=O)c3ccc(Cl)cc3)c3ccc(OC)cc23)cc1` [PTI, Phospho-tyrosol-indomethacin] gave a CLint [2] of 35.9 mL/min/g, a t1/2 ([2]; NADPH-regenerating solution) of 77.3 min and a CLint ([3]; human liver microsomes, 0.5 mg/ml protein, 37°C) of 100.0 mL/min/g. The t1/2 ([3]; human liver microsomes, 0.5 mg/ml protein, 37°C, NADPH-regenerating solution) was 13.9 min, the “PTI hydrolyzed to yield IND” value ([3]; human liver microsomes, twenty minutes after initiation, PTI 75 µM, 0.5 mg/ml protein) was 52% and the “glucuronidation in HLMs” value [4] was “not glucuronidated”. The “intact drug in rat plasma” value [5] was “not detected”, the “O-demethylation of PTI Vmax” value (CYP3A4) was 1.5 pmol/min/ pmol CYP and the “O-demethylation of PTI Vmax” value (CYP2D6) was 70.0 pmol/min/ pmol CYP. The CLint [6] was 8.0 mL/min/g, the t1/2 ([6]; NADPH-regenerating solution) was 348.0 min and the CLint [7] was 210.0 mL/min/g. For the same compound, the t1/2 ([7]; NADPH-regenerating solution) was 13.2 min, the CLint ([8]; 37°C) was 36.9 mL/min/g and the t1/2 [8, 10] was 37.6 min. The “PTI hydrolyzed to yield IND” value [8, 11] was 22%, the CLint ([9]; 37°C) was 172.4 mL/min/g and the t1/2 [9, 10] was 8.0 min. The “PTI hydrolyzed to yield IND” value [9, 11] was 80%.

For `COc1ccc2[nH]c(C)c(CC(=O)O)c2c1` [debenzoyl-IND], the “metabolite formation in PTI-treated HLMs in the absence of NADPH” value [3] was “detected”.

In the case of `Cc1c(CC(=O)O)c2cc(O)ccc2n1C(=O)c1ccc(Cl)cc1` [demethyl-IND], the “metabolite formation in PTI-treated HLMs in the absence of NADPH” value [3] is reported as “not detected”.
